Patent US20100222269A1, “IMPROVED DERIVATIVES OF AMYLIN” (priority 2007, published 2010)
Positions of bridges follow the written chain, without caps; N, C: chain ends. Non-standard residues stand in square brackets, D forms with d. Residues, ends and D or L forms follow the SMILES beside them. *: point of attachment. C20 diacid = O=C(O)CCCCCCCCCCCCCCCCCCC(=O)*; AEEA = NCCOCCOCC(=O)O

Molecular target: T1, Amylin 3(a) receptor (human calcitonin receptor (CTa) with RAMP-3) (Homo sapiens, UniProt O60896+P30988)
T1 construct: expressed in transfected cells; host or cells: BHK570 (baby hamster kidney) cells, stably transfected, with CRE-luciferase reporter
T1 sequence (O60896 24-148): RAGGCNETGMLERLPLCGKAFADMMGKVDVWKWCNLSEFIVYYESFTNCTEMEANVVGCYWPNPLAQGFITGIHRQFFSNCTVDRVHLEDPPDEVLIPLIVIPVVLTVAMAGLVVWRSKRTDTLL
T1 sequence (P30988 25-474): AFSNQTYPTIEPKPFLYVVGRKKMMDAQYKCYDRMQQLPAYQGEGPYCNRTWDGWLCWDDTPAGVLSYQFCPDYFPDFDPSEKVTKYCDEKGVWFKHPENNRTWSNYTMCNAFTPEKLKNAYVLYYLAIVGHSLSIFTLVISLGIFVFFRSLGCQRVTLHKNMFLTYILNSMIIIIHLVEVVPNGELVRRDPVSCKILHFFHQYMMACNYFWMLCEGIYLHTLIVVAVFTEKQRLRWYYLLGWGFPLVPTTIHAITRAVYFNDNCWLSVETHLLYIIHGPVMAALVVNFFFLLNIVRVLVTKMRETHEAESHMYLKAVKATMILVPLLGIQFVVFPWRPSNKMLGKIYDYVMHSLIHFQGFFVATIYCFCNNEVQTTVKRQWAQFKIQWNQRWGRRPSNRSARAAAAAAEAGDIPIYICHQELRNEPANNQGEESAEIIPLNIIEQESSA
Assay: Amylin luciferase assay (CRE-luciferase reporter in BHK Amylin 3(a)//CRE-luc cells)
Format: cell-based
Settings: BHK570 cells with human calcitonin receptor (CTa), RAMP-3 and CRE-luciferase reporter; 4 hours incubation; read-out: Potency luciferase assay
Outline: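 BHK570 cells stably expressing human calcitonin receptor (CTa), RAMP-3 and a CRE-luciferase reporter, about 20.000 cells/well, were exposed to standard or sample for 4 h at 37° C in phenol-red-free DMEM with 10% FBS and 10 mM Hepes pH 7,4. Luminescence was read after 30 min with LucLite at room temperature.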

EC50 | Compound
0.08 nM | CC[C@H](C)[C@H](NC(=O)[C@@H]1CCCN1C(=O)CNC(=O)[C@H](Cc1ccccc1)NC(=O)[C@H](CC(N)=O)NC(=O)[C@H](CC(N)=O)NC(=O)[C@H](CO)NC(=O)[C@H](CO)NC(=O)[C@H](Cc1c[nH]cn1)NC(=O)[C@@H](NC(=O)[C@H](CC(C)C)NC(=O)[C@H](Cc1ccccc1)NC(=O)[C@H](CC(N)=O)NC(=O)[C@H](C)NC(=O)[C@H](CC(C)C)NC(=O)[C@H](CCCNC(=N)N)NC(=O)[C@H](CCC(N)=O)NC(=O)[C@@H](NC(=O)[C@H](C)NC(=O)[C@@H]1CSSC[C@H](NC(=O)[C@H](CCCCN)NC(=O)[C@H](CCCNC(=N)N)NC(=O)[C@H](CCCCN)NC(=O)[C@H](CCC(=O)O)NC(=O)CCCCCCCCCCCCCCCCCCC(=O)O)C(=O)N[C@@H](CC(N)=O)C(=O)N[C@@H]([C@@H](C)O)C(=O)N[C@@H](C)C(=O)N[C@@H]([C@@H](C)O)C(=O)N1)[C@@H](C)O)C(C)C)C(=O)N[C@@H](CC(C)C)C(=O)N1CCC[C@H]1C(=O)N1CCC[C@H]1C(=O)N[C@H](C(=O)N[C@@H](CC(N)=O)C(=O)N[C@H](C(=O)NCC(=O)N[C@@H](CO)C(=O)N[C@@H](CC(N)=O)C(=O)N[C@H](C(=O)N[C@@H](Cc1ccc(O)cc1)C(N)=O)[C@@H](C)O)C(C)C)[C@@H](C)O [Example 50, N-alpha-(19-carboxynonadecanoyl)-Glu-Lys-Arg-pramlintide (1-37)] ({C20 diacid}-EKRKCNTATCATQRLANFLVHSSNNFGPILPPTNVGSNTY-NH2; disulfide 5-10)
0.07 nM | CC[C@H](C)[C@H](NC(=O)[C@@H]1CCCN1C(=O)CNC(=O)[C@H](Cc1ccccc1)NC(=O)[C@H](CC(N)=O)NC(=O)[C@H](CC(N)=O)NC(=O)[C@H](CO)NC(=O)[C@H](CO)NC(=O)[C@H](Cc1c[nH]cn1)NC(=O)[C@@H](NC(=O)[C@H](CC(C)C)NC(=O)[C@H](Cc1ccccc1)NC(=O)[C@H](CC(N)=O)NC(=O)[C@H](C)NC(=O)[C@H](CC(C)C)NC(=O)[C@H](CCCNC(=N)N)NC(=O)[C@H](CCC(N)=O)NC(=O)[C@@H](NC(=O)[C@H](C)NC(=O)[C@@H]1CSSC[C@H](NC(=O)[C@H](CCCNC(=N)N)NC(=O)[C@H](CCCCN)NC(=O)[C@H](CCC(=O)O)NC(=O)CCCCCCCCCCCCCCCCCCC(=O)O)C(=O)N[C@@H](CC(N)=O)C(=O)N[C@@H]([C@@H](C)O)C(=O)N[C@@H](C)C(=O)N[C@@H]([C@@H](C)O)C(=O)N1)[C@@H](C)O)C(C)C)C(=O)N[C@@H](CC(C)C)C(=O)N1CCC[C@H]1C(=O)N1CCC[C@H]1C(=O)N[C@H](C(=O)N[C@@H](CC(N)=O)C(=O)N[C@H](C(=O)NCC(=O)N[C@@H](CO)C(=O)N[C@@H](CC(N)=O)C(=O)N[C@H](C(=O)N[C@@H](Cc1ccc(O)cc1)C(N)=O)[C@@H](C)O)C(C)C)[C@@H](C)O [Example 51, N-alpha-(19-carboxynonadecanoyl)-Glu-Lys-[Arg1]-pramlintide (1-37)] ({C20 diacid}-EKRCNTATCATQRLANFLVHSSNNFGPILPPTNVGSNTY-NH2; disulfide 4-9; C-terminus assumed)
0.4 nM | {C20 diacid}-EER[AEEA]ECNTATCATQRLANFLVHSSNNFGPILPPTNVGSNTY-NH2 (disulfide 6-11; C-terminus assumed) [Example 44, N-alpha-(2-{2-[2-((S)-2-{(S)-4-carboxy-2-[(S)-4-carboxy-2-(19-carboxynonadecanoylamino)butyrylamino]butyrylamino}-5-guanidinopentanoylamino)ethoxy]ethoxy}acetyl)-[Glu1]-pramlintide (1-37)]
